Results as given in US20100015126A1, “Methods of Binding of Cross-Beta Structures By Chaperones” (priority 2006, published 2010).

Assays:
HUVECs = assay: FACS: binding of misfolded proteins and BiP to HUVECs; type: cell-based, human
Procedure: For these experiments HUVECs were isolated by trypsinization. After trypsinization cells were collected in RPMI 1640, containing P/S and 10% FCS and centrifuged. After centrifugation cells were resuspended in RPMI medium without FCS at a concentration of 1.250.000 cells/250 μl. Individual 4-ml tubes (polypropylene, Greiner), containing 250 μl cell suspensions were made. To each tube 75 μl of a sample, containing either, • a. buffer (PBS) only, or • b. 25 μl PBS+50 μl BiP (1.16 mg/ml), or • c. 50 μl buffer with 25 μl oxLDL (1 mg/ml), or • d. 74 μl buffer with 1 μl BSA-AGE (25 mg/ml), or • e. 24 μl PBS+1 μl BSA-AGE (25 mg/ml)+50 μl BiP (1.16 mg/ml), or • f. 25 μl oxLDL (1 mg/ml)+50 μl BiP (1.16 mg/ml), • g. 1.6 μl dIgIV-65 (20 mg/ml)+73.4 μl PBS • h. […]
was added. Subsequently, the cells were incubated with the sample for approximately 30 minutes at 4° C. Next, cells were pelleted by centrifugation and the supernatant was discarded. Cells were washed subsequently with FACS buffer (PBS/0.5% BSA/0.05% m/v NaN3) at 4° C. and resuspended in FACS-buffer at approximately 1*10^5 cells/100 μl for subsequent analysis. Cell death was determined by adding 3 μl 7-aminoactinomycin D (7AAD) solution (prepared according to standard procedures). Binding of sample BSA-AGE (see elsewhere in this application for preparation details) was determined with anti-AGE monoclonal antibody 4B5 (10 μg/ml) and, after washing, with goat anti-mouse PE secondary antibodies (Jackson Immunoresearch, West Grove, USA). Binding of BSA-AGE was also assessed using the intrinsic fluorescence of BSA-AGE in the PE channel. Binding of oxidized LDL (oxLDL, oxidized for 56% following incubation with FeSO4; specific enhancement of Thioflavin T fluorescence) was determined with rabbit serum with anti-ApoB100 polyclonal antibodies at a concentration of 160 μg/ml and, after washing the cells, with FITC-labelled goat anti-rabbit antibodies (1:200, Jackson). Binding of dIgIV-65 was assessed by using anti-Human IgG antibody. BiP binding was determined using the earlier mentioned anti-FLAG antibody (M2, Sigma-Aldrich).

[1] = tested on: human monocyte-derived dendritic cells; assay: FACS: binding of misfolded proteins and BiP to human monocyte-derived dendritic cells; type: cell-based
Text: In vitro generation of peripheral blood human monocyte-derived dendritic cells, and analyses for binding of misfolded proteins and BiP
Human DCs are generated from non-proliferating precursors selected from peripheral blood mononuclear cells (PBMCs), essentially by published methods (Sallustro and Lanzavecchia [1994], J. Exp. Med. 179 1109-1118). Relative abundant presence of CD1a, CD32, CD36, CD40, CD54, CD86, HLA-DR and CD206 and relative low content of CD14 positive, CD16 positive, CD64 positive, CD80 positive, CD83 positive and CD163 positive cells serve as a quality measure for the immature DCs. After obtaining the immature DCs upon stimulation with GM-CSF and IL-4, direct binding of misfolded proteins and BiP to the DCs is assessed by incubating 200.000 cells (2*10^6 cells/ml) for 30 minutes at 4° C. under metabolic arrested state, with 1) PBS, 2) 58 μg/ml BiP (830 nM), 4) 250 μg/ml BSA-AGE (3.6 μM), 5) BSA-AGE+BiP, 6) 250 μg/ml oxLDL, 7) oxLDL+BiP, 8) mixture of BiP-binding peptides 6BB8-11, 13 (see Table 5), 125 μg/ml+BiP, and 8) 62.5 μg/ml Aβ16-22, 62.5 μg/ml Aβ25-35+BiP. After the incubation and careful washing of the cells, binding of BiP, BSA-AGE and oxLDL is assessed with FACS, using primary antibodies monoclonal anti-FLAG antibody, monoclonal anti-glycated human fibronectin antibody 4B5 and rabbit serum with anti-human apoliprotein B-100 antibody (Dade Behring, Newark, Del., USA), and the appropriate FITC- or PE-labeled secondary antibody. Mean fluorescence intensity (MFI) ratio's are determined by measuring background fluorescence.

immobilized BiP = target: T1, immobilized BiP (Homo sapiens, UniProt P11021); assay: Depletion of solutions from misfolded proteins using immobilized BiP (ELISA); type: binding; conditions: BiP coated at 5 μg/ml
T1 construct: The human BiP gene except the signal peptide encoding region was obtained from Geneart (Germany); linker […]; made in house; host or cells: HEK 293E cells, transient transfection, PABC674 vector; secreted into the medium
T1 sequence (P11021 19-654): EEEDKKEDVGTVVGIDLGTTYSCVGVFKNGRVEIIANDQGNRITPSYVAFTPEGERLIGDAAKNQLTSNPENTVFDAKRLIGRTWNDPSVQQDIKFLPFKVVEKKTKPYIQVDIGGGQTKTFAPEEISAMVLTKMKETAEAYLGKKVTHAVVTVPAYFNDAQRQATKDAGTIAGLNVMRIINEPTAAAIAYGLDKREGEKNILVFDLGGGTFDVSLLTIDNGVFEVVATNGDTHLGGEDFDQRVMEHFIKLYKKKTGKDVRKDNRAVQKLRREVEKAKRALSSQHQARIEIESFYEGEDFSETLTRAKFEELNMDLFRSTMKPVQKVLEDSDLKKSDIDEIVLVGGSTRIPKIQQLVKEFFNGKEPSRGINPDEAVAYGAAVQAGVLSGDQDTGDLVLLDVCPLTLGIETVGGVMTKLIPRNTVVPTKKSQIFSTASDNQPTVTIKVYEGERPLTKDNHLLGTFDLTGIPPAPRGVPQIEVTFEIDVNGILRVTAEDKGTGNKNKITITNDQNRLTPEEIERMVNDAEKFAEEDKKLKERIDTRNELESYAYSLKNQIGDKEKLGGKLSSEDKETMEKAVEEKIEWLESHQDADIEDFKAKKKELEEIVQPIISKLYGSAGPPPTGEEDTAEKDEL
Procedure: We analysed whether recombinant human BiP with a C-terminal FLAG-tag and His-tag can be applied for depleting solutions from misfolded proteins comprising crossbeta structure.
BiP was coated at a concentration of 5 μg/ml at Greiner Microlon high-binding plates, for 1 h at room temperature with motion. As a negative control buffer was coated. ELISAs were performed essentially as described before. […] All binding buffers were PBS/0.1% (v/v) Tween20. Binding of dOVA was assayed using monoclonal anti-chicken egg albumin antibody (Sigma, A6075, 1:10.000 dilution) and RAMPO (Dako Cytomation, P0260, 1:3.000). […] Background signals obtained with buffer coated wells that were subsequently overlayed with protein solutions (see below), were subtracted from signals obtained with wells with coated BiP.

Substance	Binding of misfolded protein to ECs (MFI ratio) (HUVECs; absence of BiP, 30 minutes at 4° C.)	Binding of misfolded protein to ECs (MFI ratio) (HUVECs; presence of BiP)	Binding to DCs (MFI ratio), Misfolded protein ([1]; FACS, human dendritic cells, detection of the misfolded protein, signal divided by background signal)	Binding of misfolded protein to DCs ([1]; absence of BiP, 250 μg/ml)	Amount of BiP bound to DCs when added together with misfolded protein ([1]; compared to BiP added to DCs alone)	Amount of misfolded protein bound to DCs when added together with BiP ([1]; compared to misfolded protein without BiP)	Concentration at which binding to immobilized BiP is already maximum (immobilized BiP)	Extraction from solution by immobilized BiP (immobilized BiP; 1, 10, 100 μg/ml misfolded protein)
BSA-AGE	13.8	10.2	4.0	bind	about doubled	only slightly increased	–	–
HbAGE: human haemoglobin glycated with glucose-6-phosphate for 75 weeks	–	–	–	–	–	–	1 µg/mL	extracted specifically by BiP to an even higher extent
